In US4650798A, “Antiarrhythmic 2,2-dialkyl-1-(aminoalkyl)-spiro[chroman-4,4'-imidazolidine]-2',5'-dione s” (priority 1984, dated 1987):

Key:
[1] = test system: Chloroform-induced arrhythmia; assay: Chloroform-induced arrhythmia (mice); details: for minimal effective dose: Mus musculus, po, 1 h, read-out: Effective dose; for Lethal dose: peroral, mice
Procedure: (1) Chloroform-induced arrhythmia (mice):
Ventricular arrhythmia was caused experimentally in mice by the following method.
The mice were placed in a device filled with chloroform gas. After expiring, the ventricular pulse was counted from a record of an electrocardiogram. The antiarrhythmic activity of the test compound was determined based on its effect of relieving tachycardia. […] The compounds were tested by administration by two routes, i.e. peroral and intravenous injection. […] As comparative standard medicines, quinidine, disopyramide and phenytoin were employed. This method is taught in the publication, J. Pharmacol. Exp. Ther. 160,22 (1968), by J. W. Lawson.

[2] = Acute toxicity (rats), peroral; details: rat, in vivo, po
Excerpt: (3) Acute toxicity (rats):
The acute toxicity tests on rats (peroral administration) were effected using typical compounds of the present invention, i.e. 6-chloro-2,2-dimethyl-1'-[3-(4-hydroxypiperidino)propyl]spiro[chroman-4,4'-imidazolidine]-2',5'-dione (compound 1) and 2,2-dimethyl-6-fluoro-1'-[3-(4-hydroxypiperidino)propyl]-spiro[chroman-4,4'-imidazolidine]-2',5'-dione (compound 2).

myocardia = assay: Contraction of the myocardia; details: dose several times as much as that required for the antiarrhythmic effects
Excerpt: This property is quite preferred when they are used as antiarrhythmic agents.

SMILES | minimal effective dose [1] | Lethal dose [1] | LD50 ([2]; female rats) | LD50 ([2]; male rats) | contraction power of the myocardia (myocardia)
CCN(CC)CCN1C(=O)NC2(CC(C)(C)Oc3ccc(F)cc32)C1=O (stereo not shown) | 12.5 mg/kg | 200 mg/kg | – | – | –
CC(C)N(CCN1C(=O)NC2(CC(C)(C)Oc3ccc(F)cc32)C1=O)C(C)C (stereo not shown) | 25 mg/kg | 200 mg/kg | – | – | –
CN(C)CCN1C(=O)NC2(CC(C)(C)Oc3ccc(F)cc32)C1=O (stereo not shown) | 50 mg/kg | 400 mg/kg | – | – | –
CC1CC2(NC(=O)N(CCCN(C)C)C2=O)c2cc(Cl)ccc2O1 (stereo not shown) | 12.5 mg/kg | 50 mg/kg | – | – | –
CCC1(CC)CC2(NC(=O)N(CCCN(C)C)C2=O)c2cc(Cl)ccc2O1 (stereo not shown) | 25 mg/kg | 400 mg/kg | – | – | –
CC1(C)CC2(NC(=O)N(CCCN3CCC(O)CC3)C2=O)c2cc(Cl)cc(Cl)c2O1 (stereo not shown) | 12.5 mg/kg | 400 mg/kg | – | – | –
CC1(C)CC2(NC(=O)N(CCCN3CCC(c4ccccc4)CC3)C2=O)c2cc(F)ccc2O1 (stereo not shown) | 50 mg/kg | 200 mg/kg | – | – | –
CCC1(CC)CC2(NC(=O)N(CCCN3CCC(O)CC3)C2=O)c2cc(F)ccc2O1 (stereo not shown) | 25 mg/kg | 400 mg/kg | – | – | –
COC1CCN(CCCN2C(=O)NC3(CC(C)(C)Oc4ccc(F)cc43)C2=O)CC1 (stereo not shown) | 25 mg/kg | 400 mg/kg | – | – | –
CC1(C)CC2(NC(=O)N(CCCN3CCC(O)CC3)C2=O)c2cc(Cl)ccc2O1 (stereo not shown) [Compound 1, 6-chloro-2,2-dimethyl-1'-[3-(4-hydroxypiperidino)propyl]spiro[chroman-4,4'-imidazolidine]-2',5'-dione] | – | – | 858 mg/kg | 930 mg/kg | –
CC1(C)CC2(NC(=O)N(CCCN3CCC(O)CC3)C2=O)c2cc(F)ccc2O1 (stereo not shown) [Compound 2, 2,2-dimethyl-6-fluoro-1'-[3-(4-hydroxypiperidino)propyl]-spiro[chroman-4,4'-imidazolidine]-2',5'-dione] | – | – | 780 mg/kg | 860 mg/kg | –
CC(C)N(CCC(C(N)=O)(c1ccccc1)c1ccccn1)C(C)C (stereo not shown) [Disopyramide phosphate, reference compound] | 50 mg/kg | 600 mg/kg | – | – | –
O=C1NC(=O)C(c2ccccc2)(c2ccccc2)N1 [Phenytoin sodium, reference compound] | 100 mg/kg | > 800 mg/kg | – | – | –
C=CC1CN2CCC1CC2C(O)c1ccnc2ccc(OC)cc12 (stereo not shown) [Quinidine sulfonate, reference compound] | 200 mg/kg | 800 mg/kg | – | – | –
CC(C)N(CCC(C(N)=O)(c1ccccc1)c1ccccn1)C(C)C (stereo not shown) [disopyramide] | – | – | – | – | reduce the contraction power of the myocardia
CC1(C)CC2(NC(=O)N(CCCN3CCC(O)CC3)C2=O)c2cc(Cl)ccc2O1 (stereo not shown) [drawing 12] | 25 mg/kg | 400 mg/kg | – | – | –
CC1(C)CC2(NC(=O)N(CCCN3CCC(O)CC3)C2=O)c2cc(F)ccc2O1 (stereo not shown) [drawing 13] | 25 mg/kg | 400 mg/kg | – | – | –
C=C[C@H]1C[N@@]2CC[C@H]1C[C@@H]2[C@@H](O)c1ccnc2ccc(OC)cc12 [quinidine] | – | – | – | – | reduce the contraction power of the myocardia
